# Values quoted from earlier work in patent publication US8653051B2, “Use of 3-alpha-androstanediol in combination with a PDE5 inhibitor, in the treatment of sexual dysfunction” (Emotional Brain B.V., priority 2006, dated 2014).
# Settings: typical value after administration
smiles,measurement,value
"CCCc1nc(C)c2c(=O)nc(-c3cc(S(=O)(=O)N4CCN(CC)CC4)ccc3OCC)[nH]n12.Cl [vardenafil, piperazine, 1-[[3-(1,4-dihydro-5-methyl-4-oxo-7-propylimidazo[5,1-f][1,2,4]triazin-2-yl)-4-ethoxyphenyl]sulfonyl]-4-ethyl-, monohydrochloride]",time to reach peak plasma concentration after administration,about 1 hour
